Data as given in PMC3397443, “Sinularones A–I, New Cyclopentenone and Butenolide Derivatives from a Marine Soft Coral Sinularia sp. and Their Antifouling Activity” (Marine Drugs, 2012).
Values after ≈ are worked out from the molar mass of the structure shown. Where two headings read alike, the source gives them in different places.

Tests used:
[1] = system: larvae of the barnacle Balanus amphitrite; experiment: Larval settlement bioassay (antifouling activity); type: in vivo; conditions: for EC50: Amphibalanus amphitrite, read-out: Balanus amphitrite Larvae EC50
Description: (§1) All compounds were tested for their cytotoxicity against a panel of tumor cell lines including human ovarian carcinoma A2780, human lung adenocarcinoma A549, human gastric carcinoma BGC823, human hepatoma Bel7402, and human colonic carcinoma HCT-8. […] In order to detect whether these compounds play a role for ecological functions, the test for antifouling activity against the larvae of the barnacle Balanus amphitrite was performed. […] A primary discussion of structure-activity relationship implied that α,β-unsaturated 2,3-dimethyl-γ-lactone is a functional unit for anti-barnacle.
(§2) Adults of the barnacle Balanus amphitrite Darwin were exposed to air for more than 6 h, and then were placed in a container filled with fresh 0.22 µm filtered sea water (FSW) to release nauplii. The collected nauplii were reared to cyprid stage according to the method described by Thiyagarajan et al.. When kept at 26–28 °C and fed with Chaetoceros gracilis, larvae developed to cyprids within four days. Fresh cyprids were used in the tests.

[2] = Toxicity against barnacle larvae (LC50); conditions: Balanus amphitrite (barnacle), in vivo; concentration required to kill 50% of larvae of a tested population
Description: as §1, §2

[3] = concentration where 50% of larval population was inhibited to settle compared to control, cyprids

SMILES	EC50 [1, 3]	LC50 [2]	EC50 [1]	antifouling activity (in words) ([1]; against the barnacle Balanus amphitrite)
CCOC(=O)CC[C@]1(O)OC(=O)C(C)=C1C [Compound 7, Sinularone G]	18.6 µg/mL (≈ 81.7 µM)	> 50 µg/mL	–	–
CCOC(=O)CCCCCCCCCCCC[C@]1(O)OC(=O)C(C)=C1C [Compound 9, Sinularone I]	12.6 µg/mL (≈ 34.1 µM)	> 50 µg/mL	–	–
CCCCC[C@@]1(O)C(C)=C(C)C(=O)[C@H]1CC(=O)OCC [Compound 2, Sinularone B]	23.5 µg/mL (≈ 83.2 µM)	> 50 µg/mL	–	–
CCO[C@@]1(CCC(=O)OC)OC(=O)C(C)=C1C [Compound 8, Sinularone H]	21.4 µg/mL (≈ 88.3 µM)	> 50 µg/mL	–	–
CCCCC[C@]1(O)OC(=O)C(C)=C1C [Compound 10, (S)-4-hydroxy-2,3-dimethyl-4-pentyl-γ-lactone]	–	> 50 µg/mL	3.84 µg/mL (≈ 19.4 µM)	the most active
CC(=O)CC/C=C(/C)C[C@@H]1CC(C)(C)CC1=O [Compound 1, Sinularone A]	13.9 µg/mL (≈ 58.6 µM)	> 50 µg/mL	–	–
